# Results taken from patent publication US6544971B1, “Method of increasing alertness by administration of a vomeropherin, and vomeropherin-emitting alarm devices” (Pherin Pharmaceuticals, Inc., priority 2000, dated 2003).
# Columns and labels:
# Format in all cases: in vivo
# [1] = tested on: Human Subjects; test: Cognitive and motor performance tests before sleep and in the morning (maze, digit-symbol substitution, dot test, number repetition); details: night versus morning tests
# Source text: During the study, subjects spent one night in the sleep laboratory and underwent conventional polysomnography (PSG) only, during the first hour. The criteria for this short recording was based on previous findings showing that single dose VNO stimulation with the vomeropherins induced effects within one hour after stimulation. Before starting the recordings, each subject was questioned regarding distressing or extenuating events during that day that could contribute to sleep disruption. Times of last meal and physical exercise (if applicable) were also recorded. In order to determine whether the compound would affect daytime activities, or anterograde memory, judgment and motor skills were also evaluated both before going to sleep and in the morning. […]
# In the morning, all subjects completed a multiple-choice questionnaire regarding the following variables: sleep latency after last entry, estimated time sleeping, number of awakenings, and quality of sleep. General status at waking time was determined by marking on a 9 item analog scale inventory. […]
# [2] = tested on: Human Subjects; test: Morning multiple-choice questionnaire and analog scale (sleep latency, duration, quality, status at waking)
# Protocol: In the morning, all subjects completed a multiple-choice questionnaire regarding the following variables: sleep latency after last entry, estimated time sleeping, number of awakenings, and quality of sleep. General status at waking time was determined by marking on a 9 item analog scale inventory. In addition, all subjects were administered cognitive and motor performance tests identical to those received before bedtime.
# [3] = tested on: Human Subjects; test: Sleep study by polysomnography (PSG) after VNO stimulation, randomized single-blind placebo-controlled; details: for Overall effect on sleep and arousal: conclusion from PSG and self-reports
# Protocol: Three methods were used to assess sleep: 1) sleep study, 2) quantitative electroencephalography, and 3) psychometric tests. The study was carried out using a randomized, single-blind, placebo-controlled experimental design.
# Screening was performed several days prior to the study session via clinical interviews and examination. Additionally, Hamilton A and D, and Covy tests were administered to determine concomitant anxiety or affective disorders. A thorough questionnaire regarding sleep habits and sleep pathologies was also administered to each subject. Criteria for inclusion in the study included subjects with a score of 12 or less on the Covy test and a score of 8 or less on the Hamilton A and Hamilton D tests, and absence of any medical or psychiatric conditions. Ten physically and mentally healthy young male adult subjects were selected for the study. All of them Were normal sleepers (i.e., they reported no difficulty in falling or remaining asleep at night, slept between 6 and 8.5 hours per night, and were alert during the daytime).
# On the day of the study, they were instructed to refrain from napping, to avoid consuming alcohol or caffeine containing beverages, and to maintain a uniform daily level of activity. The ten subjects were divided into two groups of five, with the test compound being administered to one group and the other acting as a control.
# The test compound was administered to the VNO using a manual vomeronasal applicator (MVA). This applicator comprises an air supply, delivering a 1 ml pulse of air; a valve system passing that pulse of air either through a chamber containing 30 mg of USP cotton that has been previously soaked with 1 ml of a 1 mg/ml solution of the test compound, estra-1,3,5(10),16-tetraen-3-yl acetate, in ethanol and allowed to dry overnight, or bypassing that chamber; a one-way flow valve; and a nozzle capable of being positioned in a nostril to provide direct administration to the lumen of the VNO. With a 1 ml air pulse, the MVA delivers 200 pg of the test compound to the VNO.
# During the study, subjects spent one night in the sleep laboratory and underwent conventional polysomnography (PSG) only, during the first hour. The criteria for this short recording was based on previous findings showing that single dose VNO stimulation with the vomeropherins induced effects within one hour after stimulation. Before starting the recordings, each subject was questioned regarding distressing or extenuating events during that day that could contribute to sleep disruption. Times of last meal and physical exercise (if applicable) were also recorded. In order to determine whether the compound would affect daytime activities, or anterograde memory, judgment and motor skills were also evaluated both before going to sleep and in the morning. For this purpose, subjects were administered a maze test, a digit-symbol substitution test, a right and left manual coordination test (dot test), and a number repetition test as described in a previous publication (Monti, J. M., 1989, Slow Wave Sleep in Health and Disease. In: Waukier A., Dugovic C. and Radulovacki M. “Slow Wave Sleep.” New York, Raven Press. pp. […]).
# Immediately prior to “lights out”, subjects were asked to lie in a supine position. The MVA was positioned in the right nostril, with its nozzle directed toward the right VNO opening. Later, the MVA was positioned in the left nostril for stimulation of the left VNO. […]
# [4] = tested on: Human Subjects; test: Subjective in-session self-evaluation at half-hour intervals (questionnaire and 3 item analog sleepiness scale); details: for Self-Perception of Sleepiness, score on sleepiness scale inventory: scale 0 to 10, higher numbers more sleepiness
# Protocol: Immediately prior to “lights out”, subjects were asked to lie in a supine position. The MVA was positioned in the right nostril, with its nozzle directed toward the right VNO opening. Later, the MVA was positioned in the left nostril for stimulation of the left VNO. Two pulses of air or the test compound or placebo were administered to each VNO. The same procedure was repeated 30 minutes later, at which times the investigator would enter the room and wake the subject if they were asleep, so that the total dose of the vomeropherin being administered to each subject was 800 pg.
# At each 30 minute sleep interruption, prior to the test compound application, each subject was given a short questionnaire to record their perception of whether they were asleep, estimated time spent awake, and number of awakenings. In addition, sleepiness was measured by a 3 item analog scale inventory (scored from 0 to 10, higher numbers indicating more sleepiness) that included: a) readiness to get back to sleep; b) degree of anxiety and c) self rated level of sleepiness. […] Recordings began at 10:00 p.m. and lasted until 6:00 a.m. of the following day. Frontal, parietal and occipital electroencephalograms (EEG), electrooculograms, and electromyograms were recorded during the first hour. These recordings were coded and scored blind for non-rapid eye movement sleep latency from “lights out” to the appearance of the first minute of Stage 1 sleep, total wake time, wake time after sleep onset, and total sleep time. Sleep stages were assigned according to the criteria of Rechtschaffen and Kales (1968). All variables were scored separately for each 30-minute interval. Number of awakenings was tallied for the entire hour of recording.
# [5] = morning questionnaire, latency after last entry, 5 subjects per group
# [6] = morning questionnaire, 5 subjects per group
smiles,measurement,setting,value
"CC(=O)Oc1ccc2c(c1)CC[C@@H]1[C@@H]2CC[C@]2(C)C=CC[C@@H]12 [Test Compound, estra-1,3,5(10),16-tetraen-3-yl acetate]","Change in scores for anterograde memory, judgment or motor dexterity",[1],Neither the control nor the test group revealed any changes in scores
same,Sleep quality (disturbed or undisturbed),[2]; classified by subjects in the morning,one subject in the test group defined their sleep as “disturbed”
same,"Sleep Latencies <30 Minutes, number of subjects",[2]; [5],0 n
same,"Sleep Latencies >30 minutes, number of subjects",[2]; [5],5 n
same,"Sleep Duration 4-6 hours, number of subjects",[2]; [6],5
same,"Sleep Duration 7-8 hours, number of subjects",[2]; [6],0
same,Reported sleep latency after VNO stimulation,"[2]; morning quiz, control group shorter than 30 minutes",> 30 min
same,Condition at morning waking (index and visual analog scale),[2]; versus placebo,did not show any difference
same,Overall effect on sleep and arousal,[3],possible psychostimulant effect
same,Overall effect on sleep and arousal,"[3]; listed as estra-1,3,5(10),16-tetraen-3-yl acetate",primary arousing effect
same,"Sleep Onset Latency (SOL), Mean","[3]; healthy young male adults, 5 per group, test compound to VNO by MVA, total 800 pg, first hour PSG, control group 16",21 min
same,"Wake Time after Sleep Onset, Mean","[3]; healthy young male adults, 5 per group, test compound to VNO by MVA, total 800 pg, first hour PSG, control group 17.7",16.3 min
same,"Total Sleep Time (TST), Mean","[3]; healthy young male adults, 5 per group, test compound to VNO by MVA, total 800 pg, first hour PSG, control group 26.0",14.3 min
same,"Self-Perception of Sleepiness, score on sleepiness scale inventory","[4]; First entry (beginning study), placebo 7.5",6.0
same,"Self-Perception of Sleepiness, score on sleepiness scale inventory","[4]; Second entry (60 min. int), after dosing, placebo 8.9",3.2
same,Self-reported number of awakenings,"[4]; self-evaluation at half-hour intervals, control group none to more than three",three or more
same,Effect on subject's self-perception of sleep,[4]; self-reports compared with PSG data,does not impair a subject's self-perception of sleep
